# Legend:
# SPD rats [1] = assay: EPM after 83 days chronic feeding, SPD rats, Study 3; format: in vivo, rat; conditions: chronic feeding 83 days, compared to control (SD)
# Experimental: (§1) Generally, exogenous ketone supplementation was tested by adding to food and feeding chronically for 83 days in SPD rats and administering sub-chronically for 7 days in both rat models by daily intragastric gavage bolus, followed by assessment of anxiety measures on EPM. The groups included standard diet (SD) or SD+ketone supplementation.
# (§2) EPM (Coulbourn Instruments) was used to assess anxiety-related behavior of the rats after 83 days of chronic feeding or after 7 days of oral gavage. EPM experiments were carried out under non-stress conditions (in dimly lit and quiet room) between 12.00 and 14.00 hours.
# (§3) The rats were transferred in their home cage to the experimental room 30 min prior to beginning the experiment. Briefly, rats were placed in the intersection of the four arms of the EPM, facing the open arm opposite to where the experimenter was and their behavior was recorded for 5 minutes. The amount of time spent and number of entries made on the open arms, closed arms and the center zones were video recorded. Latency to entry into the closed arms and the distance travelled in each zones was also measured in chronically treated SPD rats. […] At the end of the 5-minute test, the rats were removed from the maze and placed back into their home cage. The maze was cleaned with 70% alcohol and after it with tap water and dried with paper towel between rats. The primary method for data collection was a video-tracking system with computer interface and video camera (SMART V3.0 PLATFORM, Panlab, Harvard Apparatus, USA), to automatically collect behavioral data in SPD rats. A blinded observer was present in the testing room separated from the maze by a curtain, and collected EPM data in both SPD and WAG/Rij animals.
# (§4) Results were considered significant when p<0.05.
# [2] = Blood βHB and glucose compared between the two animal models, Study 3; format: in vivo, rat; conditions: after sub-chronic ketone supplementation (7 days; ~2.5 vs ~5 g/kg b.w./day)
# Source text: as §4
# [3] = Blood βHB and glucose ~40 min after single dose, 1 year old SPD rats, Study 2; format: in vivo, rat; conditions: right after 5 min EPM test, compared to control group
# Experimental: One year old SPD rats were gavaged and EPM test was performed 30 min after administration. Treatment groups BD, KE, KEMCT, KSMCT, KEKS.
# Another study was carried out using substantially similar methodologies and procedures as in Study 1, specifically using the EPM test to evaluate anxiety-related behavior in 1-year old SD rats when administered ketone supplementation versus control.
# [4] = Body weight, SPD rats, Study 3; format: in vivo, rat; conditions: compared to control
# Experimental: The body weight of all animals was recorded before the first ketone treatment (before) and on the last day of the ketone treatment (after).
# as §4
# [5] = tested on: Sprague-Dawley (SPD) rats; assay: EPM after 7 days oral gavage, SPD rats, Study 1; format: in vivo, rat; conditions: compared to control (SD); for Time spent in the center: 7 days (gavage 5 g/kg b.w./day or KD fed)
# Experimental: EPM (COULBOURN Instruments) was used to assess anxiety-related behavior of the rats after 83 days of chronic feeding or after 7 days of oral gavage. EPM experiments were carried out under non-stressful conditions (in a dimly lit and quiet room) between 12.00 and 14.00 hours.
# The rats were transferred in their home cage to the experimental room 30 min prior to beginning the experiment. Briefly, rats were placed in the intersection of the four arms of the EPM, facing the open arm opposite to where the experimenter was and their behavior was recorded for 5 minutes. The amount of time spent and number of entries made on the open arms, closed arms and the center zones were recorded. Latency to entry into the closed arms and the distance travelled in each zones was also measured in chronically treated SPD rats. Notes were made on other ethological measures such as number of rears, head dips, fecal boli, and freezing, or stretched-attend postures.
# At the end of the 5-minute test the rats were removed from the maze and placed back into their home cage. The maze was cleaned with 70% alcohol and after it with tap water and dried with paper towel between rats. The primary method for data collection was a video-tracking system with computer interface and video camera (SMART V3.0 PLATFORM, PANLAB, Harvard Apparatus, USA), to automatically collect behavioral data in SPD rats. A blinded observer was present in the testing room separated from the maze by a curtain, and manually collected EPM data in both SPD and WAG/Rij animals at the end of treatments.
# (§5) All data are presented as the mean±standard error of the mean (SEM). The effects of ketone supplementations on anxiety level were compared, as well as on blood βHB and glucose levels to control or/and baseline levels. Data analysis was performed using GraphPad PRISM version 6.0a. Results were considered significant when p<0.05. Significance was determined by unpaired t-test. Blood ketone, blood glucose, and body weight change were compared using a two-way ANOVA with Tukey's multiple comparisons test and unpaired t-test.
# WAG/Rij rats = assay: EPM after 7 days oral gavage, WAG/Rij rats, Study 3; format: in vivo, rat; conditions: 7 days gavage ~2.5 g/kg b.w./day
# Experimental: as §1, §2
# as §3, with “The primary method for data collection was a video-tracking system with computer interface and video camera (SMART V3.0 PLATFORM, Panlab, Harvard Apparatus, USA), to automatically collect behavioral data in SPD rats. A blinded observer was present in the testing room separated from the maze by a curtain, and collected EPM data in both SPD and WAG/Rij animals.” left out
# [6] = Blood βHB and glucose levels (Precision Xtra), WAG/Rij rats, Study 3
# Experimental: For the sub-chronic gavage administration, the gavage dose was used that induced desired elevation of blood ketone based on the current inventors' previous studies (Kesl et al. 2016).
# In the chronic feeding study, blood βHB and glucose levels were measured 24 hours before the 1st day of ketone treatments (baseline levels) and at the 13th week after the EPM experiment. In the 7-day oral gavage studies, blood βHB and glucose levels were measured 24 hours before the 1st day of ketone treatments (baseline levels; SPD and WAG/Rij rats), 24 hours after the first gavage, and 60 min after gavage on the 7th day (SPD and WAG/Rij rats). Whole blood samples (10 μL) were taken from the saphenous vein for analysis of blood glucose (mg/dl) and βHB (mmol/1) levels with the commercially available glucose and ketone (βHB) monitoring system Precision Xtra™ (Abbott Laboratories, Abbott Park, Ill., USA).
# as §5, with “anxiety-related behavior” for “anxiety level”, “one-way ANOVA with Fisher s LSD test for the behavioral data.” for “unpaired t-test.”, “test.” for “test and unpaired t-test.”
# SPD rats [7] = assay: EPM after 7 days oral gavage, SPD rats, Study 3; format: in vivo, rat; conditions: 7 days gavage 5 g/kg b.w./day
# Experimental: as §1, §2, §3, §4
# [8] = Blood βHB and glucose levels (PRECISION XTRA), WAG/Rij rats, Study 1; format: in vivo, rat; conditions: for Blood βHB: WAG/Rij rats, after 7 days of gavaging ~2.5 g/kg b.w./day, compared to baseline; for Glucose, Mean Diff., Tukey's multiple comparisons test (Compare S-D to WagRij) / βHB, Mean Diff., Tukey's multiple comparisons test (Compare S-D to WagRij): WR (WAG/Rij) rats, own Baseline minus 7 days of the same group
# [9] = Body weight, SPD rats, Study 1; format: in vivo, rat; conditions: for Body Weight (7 days), Mean Diff., Tukey's multiple comparisons test: in g (unit assumed)
# Experimental: The body weight of all animals was recorded before ketone treatments started (before) and after the last ketone treatments (after).
# Results were considered significant when p<0.05. […]
# [10] = After:SD (control) minus After:treated group
molecule,measurement,setting,value
"CC(=O)CC(=O)OCCC(C)OC(=O)CC(C)=O (centres unmarked) [KE, 1,3-butanediol-acetoacetate diester]",Distance traveled in the closed arms,SPD rats [1],significantly less
same,Time spent in the closed arms,SPD rats [1],significantly less
same,βHB levels in WAG/Rij rats compared to SPD rats,[2],Higher
same,Blood glucose level,[3],significantly lower
same,Body weight,[4]; after 7 days of treatment,lower
same,Body weight,[4]; after chronic feeding,lower
same,Time spent in the center,[5],decreased
same,Time spent in the open arms,[5]; 7 days gavage 5 g/kg b.w./day,increased
same,Entries to open arms,WAG/Rij rats; compared to control,less entries
same,Time spent in the center,WAG/Rij rats; compared to control (SD),more time
same,Glucose levels,"[6]; WAG/Rij rats, after 24h, compared to baseline levels",lower
same,Glucose levels,"[6]; WAG/Rij rats, after 7 days compared to the level at 24h",elevated
same,Blood βHB,"[6]; WAG/Rij rats, after 7 days of gavage, compared to baseline, 24 hours and control",elevated
same,Entries to the closed arms,SPD rats [7]; compared to control,less frequent
same,Time spent in the center,SPD rats [7]; compared to control,decreased
same,Time spent in the open arms,SPD rats [7]; compared to control,increased
same,Blood βHB,[8],elevated
same,"Glucose, Mean Diff., Tukey's multiple comparisons test (Compare S-D to WagRij)",[8],-2.75 mg/dL
same,"βHB, Mean Diff., Tukey's multiple comparisons test (Compare S-D to WagRij)",[8],−0.6125 mmol/1
same,"Body Weight (7 days), Mean Diff., Tukey's multiple comparisons test",[9]; [10],37.03
same,Body weight,"[9]; after chronic feeding (week 13), compared to control, listed as SD+LKE",higher
same,"Body Weight (90 days), Mean Diff., Tukey's multiple comparisons test","[9]; chronic feeding, After:SD (control) minus After:treated group",73.96
Na^+/K^+-βHB mineral salt [KS],Distance traveled in the center,SPD rats [1],more
same,Distance traveled in the closed arms,SPD rats [1],significantly less
same,Distance traveled in the open arms,SPD rats [1],significantly greater
same,Time spent in the center,SPD rats [1],significantly more
same,Time spent in the closed arms,SPD rats [1],significantly less
same,Time spent in the center,[5],decreased
same,Entries to the center,[5]; 7 days gavage 5 g/kg b.w./day,fewer times
same,Entries to the closed arms,[5]; 7 days gavage 5 g/kg b.w./day,less frequent
same,Blood βHB,"[6]; rat, in vivo",elevated
same,Entries to the closed arms,SPD rats [7]; compared to control,less frequent
same,Time spent in the center,SPD rats [7]; compared to control,decreased
same,Entries to the center,SPD rats [7]; compared to control (SD),fewer times
same,Blood βHB,[8],elevated
same,"Glucose, Mean Diff., Tukey's multiple comparisons test (Compare S-D to WagRij)",[8],-6.5 mg/dL
same,"βHB, Mean Diff., Tukey's multiple comparisons test (Compare S-D to WagRij)",[8],−0.5375 mmol/1
same,"Body Weight (7 days), Mean Diff., Tukey's multiple comparisons test",[9]; [10],48.25

# Source: patent US10980764B1, “Exogenous ketone supplements for reducing anxiety-related behavior” (priority 2016, dated 2021)
